Measured values taken from patent US6605639B1, “Ligands of nuclear receptor” (Nuclear Receptor Research, Ltd., priority 1998, dated 2003).
“And” between values parts separate entries of the source, which are not always exact repeats. Identical values can stand only once. Like-named read-outs stand apart in the source and are kept apart here.

Legend:
male ICR and ddY mice = experiment: Serum total cholesterol lowering effect in mice; format: in vivo, mouse; settings: 8 days; for Serum total cholesterol, % change: vs control; for Serum total cholesterol: Mean±SE
Text: Effect of serum cholesterol lowering agents varies among animals. Namely, some agents which are effective on a certain animal exert […] on others. For example, compactin, which is an HMG CoA reductase inhibitor, cannot lower the serum total cholesterol level when administered to rodents such as rat or mouse. This is because even though HMG CoA reductase is inhibited in the rodent liver, the enzyme is biosynthesized in an amount in excess of that for compensating the inhibition so that the inhibitory effect is negated. Accordingly, it is favorable to calibrate the effect of lowering serum total cholesterol level in as many animals as possible. Concerning the effect of the compounds of the present invention on the serum total cholesterol level, an assay was made with the use of mice. After adding these compounds to a standard powdery feed for rat and mouse, the resultant mixtures were molded into pellets and given for 8 days to male ICR and ddY mice aged 5 weeks. In the afternoon of the day 8, the blood of each animal was collected from the heart and the total cholesterol in the serum was determined. The doses were determined as the maximum dose, in which body weight gain was not suppressed after orally administering for 1 week, and as the ¼ dose thereof.
Each value is represented in Mean±SE (n=10). a) In the case of Compound-1, the control group consisted of 23 animals while the 0.04% and 0.01% groups each consisted of 12 animals.

[1] = tested on: cholesterol-7α hydroxylase; experiment: Formation of 7α-hydroxycholesterol in hepatic microsome of treated rats; format: in vivo, rat; settings: for 7-α-Hydorxycholesterol / 7-α-Hydorxycholesterol (conversion rate): 7 times, 1% cholesterol feed, average of 5 rats
Description: To examine the function mechanism of the compounds of the present invention for promoting bile acid excretion, an experiment was carried out to study the effect on a nuclear receptor LXR. It is assumed that LXR, which is a special nuclear receptor in the liver, might be a cholesterol sensor acting with 22-hydroxycholesterol as a ligand (Bethany A. Janowski at al., Nature 383:728-731, 1996). When cholesterol is accumulated in excess in a respective organ, LXR binds to the ligand, forms a heterodimer with RXR, and then binds to the hormone response element. This binding serves as a signal for promoting the oxidation of cholesterol into bile acid to be excreted from the body, thereby reducing deposited cholesterol. Accordingly, the liver is the organ which accumulates cholesterol in the largest amount and, at the same time, releases cholesterol as bile acid in the largest amount. It is estimated that the ability of the compounds of the present invention to promote the excretion of bile acid into feces would be established as follows. In the liver, RXR and LXR bind to the corresponding ligands, subsequently form a heterodimer with each other, and thus promote the expression of colesterol-7α-hydroxylase which is the rate-limiting enzyme in the biosynthesis pathway of bile acid. That is to say, it is estimated that the compounds of the present invention, ligands of RXR, would promote the transcription of the gene of colesterol-7α-hydroxylase (i.e., the enzyme of the rate state in the bile acid biosynthesis in the liver) and thus enhance the expression of colesterol-7α-hydroxylase. […] Accordingly, it can be concluded that the difference between the effects of clofibrate and the compounds of the present invention on cholesterol metabolism resides in that the former is a ligand of PPARα which is not capable of forming a heterodimer with LXR while the latter enhance the transcription of cholesterol oxidase gene RXR ligand-dependently and thus promote the excretion as bile acid from the body. These findings can be regarded as one major aspect of the present invention.
The experiment was carried out as follows. For each compound, 10 male Sprague Dawley rats weighing about 200 g were divided into 2 groups at random and fed for a week with a powdery rat feed (CE-2; Nippon Crea Co., Ltd.) containing 1% of cholesterol and drinking water ad libitum. The compounds of the present invention were suspended in a 2% acacia solution and orally administered by force once a day 7 times continuously in a dose of 5 mg/kg (Compound-1 and Compound-26) or 20 mg/kg (Compound-6 and Compound-14). In the early morning of the day 8, each animal was killed by blood loss. After refluxing with physiological saline, the liver was taken out immediately. Then 4 times as much 250 mM sucrose solution (containing 75 mM of nicotinamide, 1 mM of EDTA and 0.5 mM of MgCl2) was added to the liver and the mixture was ground with the use of a Teflon homogenizer. Then the liquid ground matter was centrifuged at 9500G for 15 minutes at 4° C. and the mitochondria-free supernatant thus obtained was further centrifuged at 105000G for 60 minutes to thereby separate a microsome fraction. By using the microsome thus separated, the yield of […] was measured in a conventional manner and the conversion rate was calculated.

male Wistar rats = experiment: Oral administration of Compound-5 to rats: toxicity and Compound-1 in the blood; settings: rat, in vivo
Description: Male Wistar rats (n=4) weighing about 200 g were employed and the concentration of Compound-1 contained in the serum was expressed in mean±SE (FIG. 9).
In FIG. 9, open circles show a case wherein Compound-5 was solubilized with HCO-60 and orally administered in a dose of 2 mg/kg.
Solid circles show a case wherein Compound-5 was suspended in an acacia solution and orally administered in a dose of 20 mg/kg. Per part of the serum collected with the passage of time, ethanol containing 1% of acetic acid was added and the mixture was allowed to stand in the dark at room temperature for 7 days. Then Compound-1 was determined by high performance liquid chromatography.
Open squares show a case wherein Compound-5 was suspended in an acacia solution and orally administered. Then the blood was collected at definite points and Compound-1 was determined by high performance liquid chromatography immediately thereafter. […] Separately, Compound-5 suspended in an acacia solution was orally administered to rats having been cannulated into the portal vein. Then the portal blood was collected with the passage of time and Compound-1 was determined.

bovine serum [2] = experiment: Reaction with serum (Schiff base formation): free compound and recovery; settings: After 24 hours
Description: (§1) To recover such a compound in a free state from plasma, it is required to add a large amount of a water-miscible organic solvent (methanol, ethanol, acetone, acetonitrile, etc.) to the plasma, acidify the mixture (pH 3.0 or below) and then allow it to stand at room temperature for about 1 week. […] Ascochlorin, Compound-6 or Compound-14 is dissolved in a small amount of an organic solvent and added to serum.
(§2) At definite points, the serum was sampled and divided into 2 portions. Ten times as much acetonitrile was added to one of these portions and the mixture was centrifuged. Then the free compound in the serum was determined. To the other portion, 10 times as much acetonitrile containing 1% of acetic acid was added. After allowing to stand at room temperature for 1 week, the mixture was centrifuged and the free compound was determined (FIG. 10).

mouse and rat = experiment: Oral administration of ascochlorin to rodents; format: in vivo
Text: These effects make ascochlorin adequate as a remedy for insulin resistance syndrome. In animal experiments, however, the anorexic effect is similar to the effect of enhancing the action of insulin, which makes it highly difficult to evaluate the drug effect as an insulin enhancing agent. Thus, attempts were made to synthesis derivatives having a relatively weak anorexic effect by synthesizing various derivatives through the modification of the molecular structure of ascochlorin.

bovine serum [3] = tested on: bovine serum
Description: as §1, §2

Molecule	Serum total cholesterol, % change (male ICR and ddY mice; 0.01% in feed)	Serum total cholesterol (male ICR and ddY mice; 0.01% in feed)	Serum total cholesterol, % change (male ICR and ddY mice; 0.04% in feed)	Serum total cholesterol (male ICR and ddY mice; 0.04% in feed)	7-α-Hydorxycholesterol ([1]; 5 mg/kg oral once a day)	7-α-Hydorxycholesterol (conversion rate) ([1]; 5 mg/kg oral once a day)	toxicity when present in a free state in the blood (male Wistar rats)	7-α-Hydorxycholesterol ([1]; 20 mg/kg oral once a day)	7-α-Hydorxycholesterol (conversion rate) ([1]; 20 mg/kg oral once a day)	free compound in serum (bovine serum [2])	effects of oral administration (mouse and rat; mouse and rat)	blood pressure (mouse and rat; oral, anesthetized rats and hypertensive rats)	free compound in serum (bovine serum [3])	enzymatic activity and yield of colesterol-7α-hydroxylase per unit protein weight ([1]; ground liver of orally treated rats)
CC(/C=C/C1(C)C(C)C=CC(=O)C1C)=C\Cc1c(O)c(Cl)c(C)c(C=O)c1O (stereo not drawn) [Compound-26]	−10%	132 ± 6.1 mg/dL	−24%	110 ± 5.4 mg/dL	3.31 nM/hr/mg protein	4.00%	strong toxicity	–	–	–	–	–	–	–
CC(/C=C/[C@@]1(C)[C@H](C)CCC(=O)[C@@H]1C)=C\Cc1c(O)c(C=O)c(C)c(Cl)c1OCC(=O)O [Compound-14, 4-O-carboxymethylASC]	−7% and −13%	109 ± 2.8 mg/dL and 174 ± 4.9 mg/dL	–	144 ± 7.2 mg/dL and 100 ± 4.4 mg/dL	–	–	–	4.47 nM/hr/mg protein	7.06%	scarcely detected	–	–	–	–
3-[5-[l(R),2(S),6(S)-trimethyl-3-oxocylohexyl]-3-methyl-2,4-pentadienyl]-2,4-dihydroxy-5-chloro-6-methylbenzaldehyde [Compound-1]	−11%	138 ± 5.1 mg/dL	−15%	131 ± 6.7 mg/dL	3.80 nM/hr/mg protein	5.51%	strong toxicity	–	–	–	anorexic effect as well as effects of lowering the blood glucose level, the serum lipid level and the serum insulin level	potent effect of lowering blood pressure	scarcely detected	–
COc1c(Cl)c(C)c(C=O)c(O)c1C/C=C(C)/C=C/[C@@]1(C)[C@H](C)CCC(=O)[C@@H]1C [Compound-6, 4-O-methylASC]	−16% and −13%	93 ± 4.4 mg/dL and 103 ± 1.2 mg/dL	–	92 ± 3.3 mg/dL and 75 ± 4.4 mg/dL	–	–	–	3.61 nM/hr/mg protein	5.30%	scarcely detected	–	–	–	elevated dose-dependently
